Reference: patent publication US6355673B1, “Substituted diaminocarboxylic acids” (Aventis Pharma Deutschland GmbH, priority 1997, dated 2002)
pIC50: −log10 of the molar value.

Tests used:
stromelysin (MMP-3) = molecular target: T1, stromelysin (MMP-3) (Homo sapiens, UniProt P08254); assay: Enzyme inhibition of the catalytic domain of human stromelysin (fluorogenic substrate); assay type: biochemical; conditions: 15 min preincubation, pH=6.5, fluorescence 328 nm (ex)/393 nm (em)
T1 construct: enzymatic activity of the catalytic domains of human stromelysin and of neutrophil collagenase; made in house
T1 sequence (P08254 100-272 limits assumed): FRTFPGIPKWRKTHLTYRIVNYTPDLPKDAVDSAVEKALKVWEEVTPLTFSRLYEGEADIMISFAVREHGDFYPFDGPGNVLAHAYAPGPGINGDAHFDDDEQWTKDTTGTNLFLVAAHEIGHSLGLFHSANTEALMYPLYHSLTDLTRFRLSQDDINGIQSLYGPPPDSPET
Description: (§1) Preparation and determination of the enzymatic activity of the catalytic domains of human stromelysin and of neutrophil collagenase.
(§2) The enzymes stromelysin (MMP-3) and neutrophil collagenase (MMP-8) were prepared according to Ye et al. (Biochemistry; 31 (1992) pages 11231-11235). To measure the enzyme activity or the enzyme inhibitor action, 70 μl of buffer solution and 10 μl of enzyme solution are incubated for 15 min with 10 μl of a 10% strength (v/v) aqueous dimethyl sulfoxide solution, which optionally contains the enzyme inhibitor. After addition of 10 μl of a 10% strength (v/v) aqueous dimethyl sulfoxide solution which contains 1 mil/L of the substrates, the enzyme reaction is monitored by fluorescence spectroscopy (328 nm (ex)/393 nm(em)). The enzyme activity is shown as the extinction increase/min. The IC50 values listed in Table 2 are determined as those inhibitor concentrations which in each case lead to a 50% inhibition of the enzyme.
(§3) The buffer solution contains 0.05% Brij (Sigma, Deisenhofen, Germany) and also 0.1 mol/L tris/HCl, 0.1 mol/L NaCl, 0.01 mol/L CaCl2 and 0.1 mol/L piperazine-N,N′-bis(2-ethanesulfonic acid) (pH=6.5). The enzyme solution contains 5 μg/ml of one of the enzyme domains prepared according to Ye et al. The substrate solution contains 1 mil/L of the fluorogenic substrate (7-methoxycoumarin-4-yl)acetyl-Pro-Leu-Gly-Leu-3-(2′,4′-dinitrophenyl)-L-2,3-diaminopropionyl-Ala-Arg-NH2 (Bachem, Heidelberg, Germany).

[1] = molecular target: T2, neutrophil collagenase (MMP-8) (Homo sapiens, UniProt P22894); assay: Enzyme inhibition of the catalytic domain of neutrophil collagenase (fluorogenic substrate); assay type: biochemical; conditions: 15 min preincubation, pH=6.5, fluorescence 328 nm (ex)/393 nm (em)
T2 construct: enzymatic activity of the catalytic domains of human stromelysin and of neutrophil collagenase; made in house
T2 sequence (P22894 100-262 limits assumed): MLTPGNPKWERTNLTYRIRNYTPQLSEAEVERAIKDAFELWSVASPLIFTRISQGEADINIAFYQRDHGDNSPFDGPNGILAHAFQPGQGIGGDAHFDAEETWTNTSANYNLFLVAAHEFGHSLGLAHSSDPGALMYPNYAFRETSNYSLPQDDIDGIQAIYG
Description: as §1, §2, §3

SMILES	pIC50 (stromelysin (MMP-3))	pIC50 [1]
O=C(CC(C(=O)O)c1ccccc1)NCCC[C@@H](NS(=O)(=O)c1ccc(-c2ccc(Cl)cc2)cc1)C(=O)O (single isomer, unassigned) [Example 38]	8.30	8.70
O=C(CC(C(=O)O)c1ccccc1)NCCC[C@@H](NS(=O)(=O)c1ccc(-c2ccc(Cl)cc2)cc1)C(=O)O (single isomer, unassigned) [Example 39]	7.70	7.52
O=C(NCCC[C@H](NS(=O)(=O)c1ccc(-c2ccc(Cl)cc2)cc1)C(=O)O)NS(=O)(=O)c1ccccc1 (single isomer, unassigned) [Example 61]	8.22	8.70
NC(=O)NCCC[C@@H](NS(=O)(=O)c1ccc(-c2ccc(Cl)cc2)cc1)C(=O)O [Example 1, (R)-(4-Chlorobiphenylsulfonyl)citrulline]	7.30	8.15
CC(C)(C)OC(=O)NCCCC[C@@H](NS(=O)(=O)c1ccc(-c2ccc(Cl)cc2)cc1)C(=O)O [Example 2, R-(4-Chlorobiphenylsulfonyl)-Lys(Boc)-OH]	7.70	8.22
Cc1oncc1C(=O)NCCCC[C@@H](NS(=O)(=O)c1ccc(-c2ccc(Cl)cc2)cc1)C(=O)O [Example 4, 4-Chlorobiphenylsulfonyl-N-epsilon-(5-methylisoxazol-4-carbonyl)-Lys-OH]	7.05	7.70
O=C(NCCC[C@H](NS(=O)(=O)c1ccc(-c2ccc(Cl)cc2)cc1)C(=O)O)NS(=O)(=O)c1ccccc1 [Example 5, (4-Chlorobiphenylsulfonyl)-N-delta-(phenylsulfonylamino-carbonyl)-Orn-OH]	7.30	8.40
O=C(O)[C@@H](CCCN1Cc2ccccc2C1=O)NS(=O)(=O)c1ccc(-c2ccc(Cl)cc2)cc1 [Example 7, 2-(2R)-(4-Chlorobiphenylsulfonylamino)-5-(1-oxo-1,3-dihydro-isoindol-2-yl)pentanoic acid]	8.40	8.70
CC(=O)NCCCC[C@@H](NS(=O)(=O)CCc1ccc(-c2ccccc2)cc1)C(=O)O [Example 9, R-(4-Biphenylethylsulfonyl)-N-epsilon-acetyl-Lys-OH]	7.22	7.15
NCCCC[C@H](NS(=O)(=O)c1ccc(-c2ccc(Cl)cc2)cc1)C(=O)O [Example 12]	7.22	8.00
CC(C)(C)OC(=O)NCCC[C@H](NS(=O)(=O)c1ccc(-c2ccc(Cl)cc2)cc1)C(=O)O [Example 14]	8.30	8.52
O=C(NCCC[C@H](NS(=O)(=O)c1ccc(-c2ccc(Cl)cc2)cc1)C(=O)O)OCc1ccccc1 [Example 15]	7.70	8.10
O=C(NCCCC[C@H](NS(=O)(=O)c1ccc(-c2ccc(Cl)cc2)cc1)C(=O)O)OCc1ccccc1 [Example 16]	7.70	8.00
CC(=O)NCSC[C@@H](NS(=O)(=O)c1ccc(-c2ccc(Cl)cc2)cc1)C(=O)O [Example 18]	7.15	8.00
O=C(NCCC[C@H](NS(=O)(=O)c1ccc(-c2ccc(Cl)cc2)cc1)C(=O)O)c1cnccn1 [Example 19]	7.70	8.30
Cc1oncc1C(=O)NCCC[C@@H](NS(=O)(=O)c1ccc(-c2ccc(Cl)cc2)cc1)C(=O)O [Example 20]	7.40	8.15
Cc1ccc(S(=O)(=O)NC(=N)NCCC[C@H](NS(=O)(=O)c2ccc(-c3ccc(Cl)cc3)cc2)C(=O)O)cc1 [Example 21]	7.15	7.70
Cc1ccc(S(=O)(=O)NC(=N)NCCC[C@@H](NS(=O)(=O)c2ccc(-c3ccc(Cl)cc3)cc2)C(=O)O)cc1 [Example 22]	7.10	7.10
NC(=O)NCCCC[C@@H](NS(=O)(=O)c1ccc(-c2ccc(Cl)cc2)cc1)C(=O)O [Example 23]	7.40	8.30
NC(=O)NCCCC[C@H](NS(=O)(=O)c1ccc(-c2ccc(Cl)cc2)cc1)C(=O)O [Example 24]	7.52	8.30
N/C(=N\[N+](=O)[O-])NCCC[C@H](NS(=O)(=O)c1ccc(-c2ccc(Cl)cc2)cc1)C(=O)O [Example 25]	7.22	8.00
N/C(=N\[N+](=O)[O-])NCCC[C@@H](NS(=O)(=O)c1ccc(-c2ccc(Cl)cc2)cc1)C(=O)O [Example 26]	7.22	8.15
CC(C)(C)OC(=O)NCCC[C@H](NS(=O)(=O)c1ccc(-c2ccc(Cl)cc2)cc1)C(=O)O [Example 36]	–	8.70
O=C(NCCC[C@@H](NS(=O)(=O)c1ccc(-c2ccc(Cl)cc2)cc1)C(=O)O)C1CC1 [Example 41]	8.30	8.70
O=C(NCCC[C@@H](NS(=O)(=O)c1ccc(-c2ccc(Cl)cc2)cc1)C(=O)O)Nc1ccccc1 [Example 42]	8.00	8.52

SMILES	pIC50 (stromelysin (MMP-3))	pIC50 [1]
CN(C)c1ccc(C(=O)NCCC[C@@H](NS(=O)(=O)c2ccc(-c3ccc(Cl)cc3)cc2)C(=O)O)cc1 [Example 43]	7.40	7.70
CC(=O)Oc1ccccc1C(=O)NCCC[C@H](NS(=O)(=O)c1ccc(-c2ccccc2)cc1)C(=O)O [Example 44]	7.52	8.22
O=C(NCCC[C@H](NS(=O)(=O)c1ccc(-c2ccccc2)cc1)C(=O)O)c1ccccc1O [Example 45]	7.70	8.40
CC(C)(C)CC(=O)NCCC[C@@H](NS(=O)(=O)c1ccc(-c2ccc(Cl)cc2)cc1)C(=O)O [Example 46]	8.00	8.52
O=C(NCCC[C@@H](NS(=O)(=O)c1ccc(-c2ccc(Cl)cc2)cc1)C(=O)O)c1ccc(F)cc1 [Example 47]	8.00	8.52
O=C(NCCC[C@@H](NS(=O)(=O)c1ccc(-c2ccc(Cl)cc2)cc1)C(=O)O)c1ccc2c(c1)OCO2 [Example 48]	7.70	8.15
CC(C)(C)CC(=O)NCCC[C@H](NS(=O)(=O)c1ccc(-c2ccc(Cl)cc2)cc1)C(=O)O [Example 49]	7.70	8.52
O=C(NCCC[C@H](NS(=O)(=O)c1ccc(-c2ccc(Cl)cc2)cc1)C(=O)O)c1ccccn1 [Example 50]	8.22	8.70
O=C(NCCC[C@H](NS(=O)(=O)c1ccc(-c2ccc(Cl)cc2)cc1)C(=O)O)c1cccnc1 [Example 51]	7.70	8.52
COc1ccc(C(=O)NCCC[C@H](NS(=O)(=O)c2ccc(-c3ccc(Cl)cc3)cc2)C(=O)O)cc1OC [Example 52]	7.70	8.00
C[C@H](NC(=O)OC(C)(C)C)C(=O)NCCC[C@H](NS(=O)(=O)c1ccc(-c2ccc(Cl)cc2)cc1)C(=O)O [Example 53]	7.52	8.22
O=C(CC(C(=O)O)c1ccccc1)NCCC[C@H](NS(=O)(=O)c1ccc(-c2ccc(Cl)cc2)cc1)C(=O)O (stereo partly shown) [Example 55]	8.15	8.52
COc1ccc(S(=O)(=O)NCCC[C@H](NS(=O)(=O)c2ccc(-c3ccc(Cl)cc3)cc2)C(=O)O)cc1 [Example 56]	8.00	8.10
CC(C)(C)C(=O)NCCC[C@H](NS(=O)(=O)c1ccc(-c2ccc(Cl)cc2)cc1)C(=O)O [Example 57]	7.40	8.10
CN(C)c1ccc(-c2ccc(S(=O)(=O)N[C@@H](CCCNC(=O)OC(C)(C)C)C(=O)O)cc2)cc1 [Example 59]	8.30	9.00
COc1ccc(S(=O)(=O)NCCC[C@H](NS(=O)(=O)c2ccc(-c3ccc(Cl)cc3)cc2)C(=O)O)cc1OC [Example 60]	8.00	8.00
O=C(NCCC[C@H](NS(=O)(=O)c1ccc(-c2ccc(Cl)cc2)cc1)C(=O)O)C1CC1 [Example 62]	8.30	8.70
O=C(O)[C@H](CCCN(C(=O)C1CC1)C(=O)C1CC1)NS(=O)(=O)c1ccc(-c2ccc(Cl)cc2)cc1 [Example 63]	8.00	8.70
O=C(O)C1CC1C(=O)NCCC[C@H](NS(=O)(=O)c1ccc(-c2ccc(Cl)cc2)cc1)C(=O)O (stereo partly shown) [Example 64]	7.52	8.70
O=C(NCCC[C@H](NS(=O)(=O)c1ccc(-c2ccc(Cl)cc2)cc1)C(=O)O)C1CCC1 [Example 66]	8.00	8.70
CC1CC1C(=O)NCCC[C@H](NS(=O)(=O)c1ccc(-c2ccc(Cl)cc2)cc1)C(=O)O (stereo partly shown) [Example 69]	8.40	8.70
CC1(C)C(C(=O)NCCC[C@H](NS(=O)(=O)c2ccc(-c3ccc(Cl)cc3)cc2)C(=O)O)C1(C)C [Example 70]	8.00	8.52
O=C(NCCC[C@H](NS(=O)(=O)c1ccc(-c2ccc(Cl)cc2)cc1)C(=O)O)c1ccc(F)cc1 [Example 71]	8.00	8.52
O=C(NCCC[C@H](NS(=O)(=O)c1ccc(-c2ccc(Cl)cc2)cc1)C(=O)O)c1ccc(C(F)(F)F)cc1 [Example 72]	7.70	8.22
